Measurements from patent US20260256782A1, “COMBINATION THERAPIES COMPRISING MYC MODULATION” (FLAGSHIP PIONEERING INNOVATIONS V, INC., priority 2022, published 2026).
Where two headings read alike, the source gives them in different places.

Columns and labels:
H1975 cells = assay: cells; conditions: Homo sapiens, NCI-H1975, 72 h, read-out: IC50, growth inhibition (cell viability)
From the text: (§1) The CellTiter Glo (Promega) assay was used according to manufacturer's instructions to assess cell viability. […] Odyssey CLx Imaging System (LICOR) using near-infrared (NIR) fluorescence was used to capture and quantify the protein images.

Hep 3B cells = assay: Cell viability (Celltiter-Glo), lenvatinib in combination with bicistronic ZF9-MQ1_ZF3-KRAB DS; Bliss synergy (SynergyFinder 2.0); format: cell-based; conditions: Homo sapiens, Hep3B, 72 h
Protocol: (§2) […] Cell viability (Celltiter-Glo) levels were assessed 72 hours after treatment. Bliss synergy scores calculated using SyngeryFinder 2.0 were used to determine combinatorial effect.
(§3) Bliss synergy scores calculated using SynergyFinder 2.0 were used to determine combinatorial effect. The degree of combination synergy, or antagonism, is quantified by comparing the observed drug combination response against the expected response, calculated using a reference model that assumes no interaction between drugs. The Bliss independence model assumes a stochastic process in which two drugs elicit their effects independently, and the expected combination effect can be calculated based on the probability of independent events. […] Bliss synergy scores plus lenvatinib for Hep 3B and SK-HEP-1 were 5.37 and 12.77.

SK-HEP-1 cells = assay: as above; format: cell-based; conditions: Homo sapiens, SK-HEP1, 72 h
Protocol: as §2, §3

PC9 cells = assay: Cell viability (CellTiter Glo), osimertinib with control or MR-32054; format: cell-based; conditions: Homo sapiens, PC-9, 72 h; read-out: IC50, reduction of viability
From the text: as §1

[1] = tested on: subcutaneous H1975 tumors with sensitizing EGFR mutations (L858R, T790M); assay: H1975 subcutaneous tumor model, tumor growth; parameters: species or system mice; conditions: mouse, in vivo
Protocol: Tumor growth was measured throughout the experiment (FIG. 15).
The length and width of tumors were measured three times weekly. Tumor volumes were calculated as width^2×length/2. Body weights were measured daily.

[2] = tested on: osimertinib-resistant cell lines derived from H1975 (OsimR_1.25 and OsimR_1.5); assay: Cell viability (CellTiter Glo) after osimertinib or MR-32380 in osimertinib-resistant lines; format: cell-based; conditions: OsimR_1.25 and OsimR_1.5, 72 hours, increasing doses
Protocol: Cell viability was assessed using the CellTiter Glo (Promega) assay used according to manufacturer's instructions.

[3] = tested on: MYC protein in H1975 parental cells; assay: MYC protein level by JESS system; format: cell-based; conditions: 48 hours, 1 μM osimertinib or 1 μg/ml MR-32380 in SSOP
From the text: (§4) MYC protein levels were assess using a JESS system (Protein Simple). A 12-230 kDa pre-filled plate (Protein Simple) was loaded with protein lysate, antibody mix (MYC: Cell signaling technologies, actin: Cell signaling technologies, Goat anti-rabbit of mouse secondary antibodies conjugated with HRP, or fluorescent marker), and luminol master mix. The loaded plate and capillary cartridge (Protein Simple) were then transferred to the JESS system (Protein Simple) for imaging and quantification following manufacturer's protocol.

[4] = tested on: MYC protein in osimertinib-resistant cell lines derived from H1975 (OsimR_1.25 and OsimR_1.5); assay: MYC protein level by JESS system; format: cell-based; conditions: osimertinib resistant H1975 cells, 48 hours, 1 μM osimertinib or 1 μg/ml MR-32380 in SSOP
From the text: as §4

Myc protein in PC9 cells = assay: Myc protein by Western blot, osimertinib and/or MR-32054; format: cell-based; conditions: PC9, 48 h, 1 μM osimertinib and/or 0.5 μg/ml MR-32054 in SSOP LNPs, normalized to untreated

## CC(=O)Nc1cccc(-n2c(=O)n(C3CC3)c(=O)c3c(Nc4ccc(I)cc4F)n(C)c(=O)c(C)c32)c1 [trametinib]
H1975 cells
  IC50: 140 nM

## COc1cc2nccc(Oc3ccc(NC(=O)NC4CC4)c(Cl)c3)c2cc1C(N)=O [lenvatinib]
Hep 3B cells; ZF9-MQ1_ZF3-KRAB concentration 0 μg/mL, cell viability 72 hours after treatment, read-out: Lenvatinib IC50
  IC50: 533 nM
Hep 3B cells; ZF9-MQ1_ZF3-KRAB concentration 0.06 μg/mL, cell viability 72 hours after treatment, read-out: Lenvatinib IC50
  IC50: 309 nM
Hep 3B cells; ZF9-MQ1_ZF3-KRAB concentration 0.6 μg/mL, cell viability 72 hours after treatment, read-out: Lenvatinib IC50
  IC50: 23 nM
Hep 3B cells; ZF9-MQ1_ZF3-KRAB concentration 1.0 μg/mL, cell viability 72 hours after treatment, read-out: Lenvatinib IC50
  IC50: 48 nM
Hep 3B cells; lenvatinib without DS, read-out: half maximal inhibitory concentration (IC50) of lenvatinib
  IC50: 533 nM
SK-HEP-1 cells; SK-HEP-1, 72 hours, lenvatinib without DS, read-out: IC50 of lenvatinib
  IC50: 17.7 µM
SK-HEP-1 cells; SK-HEP-1, ZF9-MQ1_ZF3-KRAB concentration 0 μg/mL, cell viability 72 hours after treatment, read-out: Lenvatinib IC50
  IC50: 17.7 µM
SK-HEP-1 cells; SK-HEP-1, ZF9-MQ1_ZF3-KRAB concentration 0.1 μg/mL, cell viability 72 hours after treatment, read-out: Lenvatinib IC50
  IC50: 13.3 µM
SK-HEP-1 cells; SK-HEP-1, ZF9-MQ1_ZF3-KRAB concentration 0.6 μg/mL, cell viability 72 hours after treatment, read-out: Lenvatinib IC50
  IC50: 3.86 µM
SK-HEP-1 cells; SK-HEP-1, ZF9-MQ1_ZF3-KRAB concentration 1.0 μg/mL, cell viability 72 hours after treatment, read-out: Lenvatinib IC50
  IC50: 1.91 µM

## C=CC(=O)Nc1cc(Nc2nccc(-c3cn(C)c4ccccc34)n2)c(OC)cc1N(C)CCN(C)C [osimertinib]
PC9 cells
  IC50: 420 nM
[1]
  tumor growth (tumor volume): inhibit tumor growth
[2]
  cell viability (sensitivity): resistant to osimertinib
[3]
  MYC protein level: decreased MYC protein level
[4]
  MYC protein level: not affected
Myc protein in PC9 cells
  reduction of Myc protein levels: 80%
